Key:
[1] = test system: breast cancer cell line 4T1; test: MTT assay, cytotoxicity on 4T1; format: cell-based, mouse; settings: for GI50: Mus musculus, MTT, 72 h, mean of two independent determinations; for inhibition % at fixed concentration, 4T1 (printed in GI50 column): @100 nM; for TI (LO2/4T1): therapeutic index, GI50 LO2 / GI50 4T1
Experimental: (§1) MTT assay was applied to verify the rationality of the molecular combination strategy. The cytotoxicity of the compounds was evaluated on lung cancer cell line A549, colon cancer cell line HCT-116, breast cancer cell line 4T1 and normal hepatocyte cell line LO2. Paclitaxel was used as a positive drug. […] The therapeutic index (TI) for LO2/HCT-116, LO2/A549 and LO2/4T1 of active compounds 4a, 4d, 13a, 17a, 17c and paclitaxel are shown in Table 2.
(§2) Cells were inoculated in 96-well plates (cell density 2 × 10^4 cells/well) followed by incubation for 24 h at 37 °C. Paclitaxel and target compounds were added to the corresponding well. Subsequently, the cultures were incubated for 72 h. After the MTT solution (50 µL, 2 mg/mL) was added to cultures, the plates were incubated for an additional 4 h. Purple colored formazan crystals were dissolved in 200 µL DMSO, and the absorbance was recorded at 570 nm using Synergy HT, Bio-Tek (Winooski, VT, USA).

[2] = test system: lung cancer cell line A549; test: MTT assay, cytotoxicity on A549; format: cell-based, human; settings: for GI50: Homo sapiens, A549, MTT, 72 h, mean of two independent determinations; for TI (LO2/A549): therapeutic index, GI50 LO2 / GI50 A549
Experimental: as §1, §2

[3] = test system: colon cancer cell line HCT-116; test: MTT assay, cytotoxicity on HCT-116; format: cell-based, human; settings: for GI50: Homo sapiens, HCT-116, MTT, 72 h, mean of two independent determinations; for TI (LO2/HCT-116): therapeutic index, GI50 LO2 / GI50 HCT-116
Experimental: as §1, §2

[4] = test system: normal hepatocyte cell line LO2; test: MTT assay, cytotoxicity on normal cell LO2; format: cell-based; settings: for inhibition % at fixed concentration, LO2 (printed in GI50 column): @2 μM; for GI50: Hepatocyte, MTT, 72 h, mean of two independent determinations
Experimental: as §1, §2

[5] = Liposome loading with calcium acetate gradients; format: physicochemical; settings: sediment precipitated after loading
Description: Since boronic acid RB(OH)2 is not only a weak acid, but also a structure that can complex with copper ions, ATP and saccharides, we investigated whether different inner phases could be employed to encapsulate compounds (4a, 4d, 13a, 17a, 17c) with good therapeutic index.

[6] = Liposome loading with copper ion gradients (encapsulation efficiency by HPLC); format: physicochemical; settings: copper ion gradient
Description: Vyxeos® is a liposomal formulation of a fixed molar ratio (1:5) combination of the antineoplastic drugs daunorubicin (DN) and cytarabine (Cyt). Daunorubicin is subsequently actively encapsulated with high efficiency through complexation with intra-liposomal copper. The copper gluconate buffer forms a complex with daunorubicin at a ratio of 1:1 to 1:2 [25]. Referring to Vyxeos®, copper ion was selected as a complexed metal ion in the inner phase. […] Therefore, compound 4d was selected to investigate the effect of the anions on the loading efficiency. Among them, only the neutral gluconate copper was a suitable inner phase to facilitate the encapsulation of compound 4d (Table 3).
The reason for the stability of the neutral formulations was potentially due to the fact that PBA was effectively […] and interacted with copper more tightly in the neutral condition compared with the acidic condition. Thus, the neutral Cu-gluconate was selected as the inner phase. The concentration of copper ions was also investigated, showing that the higher the copper concentration, the higher the EE. Considering the safety of copper ions, 300 mM was chosen. […] The EE of compound 4d active loading liposome was more than 95% with copper ion gradient. Furthermore, we also evaluated the ATP and saccharides as remote gradients with the optimal formulation of copper ion gradients.
Blank liposomes were prepared for membrane hydration. HSPC, chol and DSPE-PEG2000 were dissolved using chloroform at a mass ratio of 3:1:0.02 and then spin-evaporated at 37 °C. The obtained film was then hydrated with 300 mM Cu-Glu (pH 7.4) at 65 °C for 30 min. The multi-layer vesicles were subsequently put into an extruder and passed through polycarbonate membranes with pore sizes of 400 nm, 200 nm and 100 nm 12 times at 65 °C containing 20 mM HEPES, 15 mM EDTA and 300 mM sucrose for removing the un-encapsulated Cu^2+, and then EDTA was removed with 20 mM HEPES and 300 mM sucrose buffer (pH 7.4, adjusted with triethylamine). Compound 4d was dissolved in DMSO and slowly added into the liposome at 65 °C for 30 min and then quenched in an ice bath for 5 min (the drug to lipid ratio was 1:10). The encapsulation efficiency and drug loading efficiency of compound 4d were determined using HPLC. The morphologies of liposomes were characterized using a transition electron microscope (TEM, Hitachi HT7700, Tokyo, Japan); then, their size, PDI and Zeta potential were measured using a Zetasizer Nano ZS90 (Malvern, UK).

SMILES | GI50 [1] [nM] | GI50 [2] [nM] | GI50 [3] [nM] | other results
CC(=O)OC12COC1CC(O)C1(C)C(=O)C(O)C3=C(C)C(OC(=O)C(OC(=O)CCC(=O)OCc4ccc(B(O)O)cc4)C(NC(=O)OC(C)(C)C)c4ccccc4)CC(O)(C(OC(=O)c4ccccc4)C21)C3(C)C (centres unmarked) [Compound 4b, 2’-O-[4-((4-boronobenzyl)oxy)-4-oxobutyryl]docetaxel] | 54.7 |  |  | 
CC(=O)OC1C(=O)C2(C)C(O)CC3OCC3(OC(C)=O)C2C(OC(=O)c2ccccc2)C2(O)CC(OC(=O)C(OC(=O)OCCCCCB(O)O)C(NC(=O)c3ccccc3)c3ccccc3)C(C)=C1C2(C)C (centres unmarked) [Compound 10a, 2’-O-[5-boronopentyl carbonate]taxol] | > 100 | > 100 | > 100 | inhibition % at fixed concentration, LO2 (printed in GI50 column) [4]: 32.81%@2 μM
CC(=O)OC1C(=O)C2(C)C(O)CC3OCC3(OC(C)=O)C2C(OC(=O)c2ccccc2)C2(O)CC(OC(=O)C(OC(=O)CCCCCCB(O)O)C(NC(=O)c3ccccc3)c3ccccc3)C(C)=C1C2(C)C (centres unmarked) [Compound 17e, 2’-O-[7-boronoheptanoyl]taxol] | > 100 | > 100 | > 100 | 
CC(=O)OC1C(=O)C2(C)C(O)CC3OCC3(OC(C)=O)C2C(OC(=O)c2ccccc2)C2(O)CC(OC(=O)C(OC(=O)CCCC(=O)OCc3ccc(B(O)O)cc3)C(NC(=O)c3ccccc3)c3ccccc3)C(C)=C1C2(C)C (centres unmarked) [Compound 4c, 2’-O-[5-((4-boronobenzyl)oxy)-5-oxopentanoyl]taxol] | > 100 |  |  | 
CC(=O)OC12COC1CC(O)C1(C)C(=O)C(O)C3=C(C)C(OC(=O)C(OC(=O)c4ccc(B(O)O)cc4)C(NC(=O)OC(C)(C)C)c4ccccc4)CC(O)(C(OC(=O)c4ccccc4)C21)C3(C)C (centres unmarked) [Compound 6b, 2’-O-[4-boronobenzoyl]docetaxel] | > 100 |  |  | 
CC(=O)OC1C(=O)C2(C)C(O)CC3OCC3(OC(C)=O)C2C(OC(=O)c2ccccc2)C2(O)CC(OC(=O)C(OC(=O)CCCB(O)O)C(NC(=O)c3ccccc3)c3ccccc3)C(C)=C1C2(C)C (centres unmarked) [Compound 17b, 2’-O-[4-boronobutanoyl]taxol] |  | 69.2 | 38.3 | inhibition % at fixed concentration, 4T1 (printed in GI50 column) [1]: 17.89%@100 nM; inhibition % at fixed concentration, LO2 (printed in GI50 column) [4]: 38.06%@2 μM
CC(=O)OC12COC1CC(O)C1(C)C(=O)C(O)C3=C(C)C(OC(=O)C(OC(=O)CCCB(O)O)C(NC(=O)OC(C)(C)C)c4ccccc4)CC(O)(C(OC(=O)c4ccccc4)C21)C3(C)C (centres unmarked) [Compound 17f, 2’-O-[4-boronobutanoyl]docetaxel] | 14.5 |  |  | 
CC(=O)OC1C(=O)C2(C)C(O)CC3OCC3(OC(C)=O)C2C(OC(=O)c2ccccc2)C2(O)CC(OC(=O)C(OC(=O)CCC(=O)OCc3ccc(B(O)O)cc3)C(NC(=O)c3ccccc3)c3ccccc3)C(C)=C1C2(C)C (centres unmarked) [Compound 4a, 2’-O-[4-((4-boronobenzyl)oxy)-4-oxobutyryl]taxol] |  | 68.5 | 73.7 | TI (LO2/A549) [2]: 27.4; TI (LO2/HCT-116) [3]: 25.4; inhibition % at fixed concentration, 4T1 (printed in GI50 column) [1]: 20.85%@100 nM; GI50 [4]: 1880 nM; encapsulation into liposomes by calcium acetate gradients [5]: not feasible; loading into liposomes, copper ion as complexed metal ion in the inner phase [6]: failed in loading into the liposomes
CC(=O)OC1C(=O)C2(C)C(O)CC3OCC3(OC(C)=O)C2C(OC(=O)c2ccccc2)C2(O)CC(OC(=O)C(OC(=O)OCc3ccc(B(O)O)cc3)C(NC(=O)c3ccccc3)c3ccccc3)C(C)=C1C2(C)C (centres unmarked) [Compound 13a, 2’-O-[4-boronobenzyl carbonate]taxol] | 92.9 | 22.5 | 8.73 | TI (LO2/A549) [2]: 43.3; TI (LO2/HCT-116) [3]: 111.3; TI (LO2/4T1) [1]: 10.5; GI50 [4]: 972 nM; encapsulation into liposomes by calcium acetate gradients [5]: not feasible; loading into liposomes, copper ion as complexed metal ion in the inner phase [6]: failed in loading into the liposomes
CC(=O)OC1C(=O)C2(C)C(O)CC3OCC3(OC(C)=O)C2C(OC(=O)c2ccccc2)C2(O)CC(OC(=O)C(OC(=O)CCCCCB(O)O)C(NC(=O)c3ccccc3)c3ccccc3)C(C)=C1C2(C)C (centres unmarked) [Compound 17d, 2’-O-[6-boronohexanoyl]taxol] | > 100 | > 100 | > 100 | 
CC(=O)OC12COC1CC(O)C1(C)C(=O)C(O)C3=C(C)C(OC(=O)C(OC(=O)OCCCCCCB(O)O)C(NC(=O)OC(C)(C)C)c4ccccc4)CC(O)(C(OC(=O)c4ccccc4)C21)C3(C)C (centres unmarked) [Compound 10c, 2’-O-[6-boronohexyl carbonate] docetaxel] |  |  |  | inhibition % at fixed concentration, HCT-116 (printed in GI50 column) ([3]; @100 nM): 55.66%@100 nM; inhibition % at fixed concentration, 4T1 (printed in GI50 column) [1]: 35.97%@100 nM; GI50 [4]: 273 nM
CC(=O)OC12COC1CC(O)C1(C)C(=O)C(O)C3=C(C)C(OC(=O)C(OC(=O)CCCCCB(O)O)C(NC(=O)OC(C)(C)C)c4ccccc4)CC(O)(C(OC(=O)c4ccccc4)C21)C3(C)C (centres unmarked) [Compound 17g, 2’-O-[6-boronohexanoyl]docetaxel] |  |  |  | inhibition % at fixed concentration, 4T1 (printed in GI50 column) [1]: 35.83%@100 nM
CC(=O)OC1C(=O)C2(C)C(O)CC3OCC3(OC(C)=O)C2C(OC(=O)c2ccccc2)C2(O)CC(OC(=O)C(OC(=O)CCB(O)O)C(NC(=O)c3ccccc3)c3ccccc3)C(C)=C1C2(C)C (centres unmarked) [Compound 17a, 2’-O-[3-boronopropanoyl]taxol] | 68.1 | 21.8 | 7.98 | TI (LO2/A549) [2]: 32.7; TI (LO2/HCT-116) [3]: 89.5; TI (LO2/4T1) [1]: 10.5; GI50 [4]: 715 nM; encapsulation into liposomes by calcium acetate gradients [5]: not feasible; loading into liposomes, copper ion as complexed metal ion in the inner phase [6]: failed in loading into the liposomes
CC(=O)OC12COC1CC(O)C1(C)C(=O)C(O)C3=C(C)C(OC(=O)C(OC(=O)OCc4ccc(B(O)O)cc4)C(NC(=O)OC(C)(C)C)c4ccccc4)CC(O)(C(OC(=O)c4ccccc4)C21)C3(C)C (centres unmarked) [Compound 13b, 2’-O-[4-boronobenzyl carbonate] docetaxel] | 33.1 |  |  | 
CC(=O)OC1C(=O)C2(C)C(O)CC3OCC3(OC(C)=O)C2C(OC(=O)c2ccccc2)C2(O)CC(OC(=O)C(OC(=O)OCCCCCCB(O)O)C(NC(=O)c3ccccc3)c3ccccc3)C(C)=C1C2(C)C (centres unmarked) [Compound 10b, 2’-O-[6-boronohexyl carbonate]taxol] | > 100 |  | > 100 | GI50 [4]: 745 nM
CC(=O)OC1C(=O)C2(C)C(O)CC3OCC3(OC(C)=O)C2C(OC(=O)c2ccccc2)C2(O)CC(OC(=O)C(OC(=O)CCSSCCC(=O)OCc3ccc(B(O)O)cc3)C(NC(=O)c3ccccc3)c3ccccc3)C(C)=C1C2(C)C (centres unmarked) [Compound 4e, 2’-O-[3-((3-((4-boronobenzyl)oxy)-3-oxopropyl)disulfaneyl)propionyl]taxol] | > 100 |  |  | 
CC(=O)OC1C(=O)C2(C)C(O)CC3OCC3(OC(C)=O)C2C(OC(=O)c2ccccc2)C2(O)CC(OC(=O)C(OC(=O)c3ccc(B(O)O)cc3)C(NC(=O)c3ccccc3)c3ccccc3)C(C)=C1C2(C)C (centres unmarked) [Compound 6a, 2’-O-[4-boronobenzoyl]taxol] | > 100 | > 100 | > 100 | 
